Key:
CT26 tumours = assay: Subcutaneous flank CT26 tumours in Balb/c mice, bacteria i.t. plus drug i.p., survival; assay type: in vivo
Experimental: Subcutaneous flank CT26 tumours growing in Balb/c mice were injected i.t with bacteria or PBS vehicle alone. Gemcitabine (60 mg/kg) was injected i.p. five times at three day intervals. FIG. 3A) Tumour volume (%) relative to the first day of gemcitabine injection (day 0) is shown. *P<0.03, **P=0.002 for gemcitabine alone versus gemcitabine+bacteria. […] Data are expressed as mean±SEM of 4 to 8 individual mice per group.
Subcutaneous flank CT26 tumours growing in Balb/c mice were injected i.t with bacteria or PBS vehicle alone. CB1954 (20 mg/kg) was injected i.p. for the duration of the experiment at 3 day intervals. FIG. 4A) Tumour volume (%) relative to the first day of CB1954 injection (day 0) is shown. […] P=0.0374). Data are expressed as mean±SEM of 3-5 individual mice per group.
FIGS. 12A-12D: Tumour therapy via in vivo activation of prodrugs. BALB/c mice bearing subcutaneous CT26 flank tumours colonised by E. coli Nissle 1917 received IP injections of CB1954+PBS, 5-FC+PBS, CB1954+5-FC or PBS three times per week. Tumours were monitored for changes in volume and luminescence (where applicable) from live bacteria on each treatment day. FIG. 12A) The change in bacterial luminescence (relative to day 0) from tumour colonising luminescent E. coli is shown. […] FIG. 12B) Changes in CT26 tumour volume were monitored until the first death in the group determined by a predefined endpoint. FIG. 12C-12D) Survival plot of each group starting from the first day of bacteria/drug administration.
Animals and tumour induction: 6-8 week old female BALB/c mice weighing approximately 18-20 g were kept as previously described. For tumour induction, a 200 μl suspension of 2×10^5 CT26 cells in serum free Dulbecco's Modified Eagle's Medium (DMEM) culture medium were injected subcutaneously into the flank of BALB/c mice. The viability of inoculated cells was determined using the Nucleocounter system (ChemoMetec). Tumour growth was monitored three times per week by caliper measurement and mice were randomly assigned to groups when the tumours reached approximately 100 mm^3 in volume. Mice were culled once tumours reached 1.5×1.5 cm in size (predetermined endpoint).
Bacterial administration to mice: Bacteria were grown overnight in LB medium and in a shaking incubator at 37° C. These bacteria were used to inoculate fresh growth medium and allowed to grow until reaching OD600 0.6. […]
Statistical analysis For biological in vitro and in vivo assays, two-sided, paired student's t test with 95% confidence or Mann Whitney U test were employed to investigate statistical differences, using GraphPad Prism@5.0 or Microsoft Excel 12. […] Statistical significance of survival between groups in murine experiments was determined using the Log-rank (Mantel-Cox) Test. […]

E. coli = assay: in vitro cytotoxicity screen of drugs co-incubated with E. coli (tumour cell survival, MTS); assay type: cell-based, E. coli Nissle 1917; settings: drug co-incubated with E. coli, bacteria removed, filtrate applied to tumour cells; change relative to reference cytotoxic effect (drug without bacteria)
Experimental: (§1) 1. Bacteria and Drug are mixed in DMEM medium, and co-incubated for 3 h at 37° C. 2. The drug is separated from bacteria using centrifugation and filtration. 3. The filter sterilised DMEM containing the transformed drug is applied to tumour cells in a 96 well plate. 4. Tumour cell viability is evaluated via the MTS assay for end point measurements.
Bioluminescent E. coli was described by us previously and cultured in the presence of […] erythromycin. Listeria welshimeri Serovar 6B SLCC5334 was purchased from ECACC and cultivated at 37° C. in Brain Heart Infusion (BHI) medium. B. breve UCC2003 and Lactococcus lactis (UCC Culture Collection) was routinely grown at 37° C. in reinforced clostridial medium and M17 medium respectively (Oxoid, Basingstoke, UK). All lactobacilli strains were a kind gift of Dr. Cormac Gahan, UCC School of microbiology, and were grown in lactobacillus MRS broth (Beckton Dickinson). The E. coli nitroreductase deletion mutants and parent strains were kindly provided by Dr. Antonio Valle and grown in LB broth/agar with appropriate antibiotics. The strain Δ+A was created by transforming AB502 (streptomycin, kanamycin sensitive derivative of parent strain AB1157) with the plasmid pNZ44 (chloramphenicol resistance) carrying the gene nfsA. The strain Δ+B was created by transforming AB502 with the plasmid pTrc99A (ampicillin resistance) containing the gene nfsB (see below).
Microtitre plates (96-well) were pre-seeded with 4000 cells/well in appropriate medium for each cell line and allowed to attach overnight. The next day, bacteria were cultured to log-phase or stationery phase (Gram-positive) resuspended in PBS and added to 2 mls of DMEM to an OD600mn of 0.1-0.2 for E. coli 0.05 for Lactococcus lactis, and 0.3-0.4 for the rest of the Grand-positives. Each strain was exposed for 2-3 h to drug in a tissue culture incubator. Bacteria were separated from the drug by centrifugation and filter sterilisation using 0.2 μm pore filters (Starsted) after which 200 μl of filtrate was transferred to each well. […] Cytotoxicity was quantified using an MTS staining with the Cell Titre 96 AQueous One solution Cell Proliferation Assay (Promega). The plates were measured and analysed in a Spectra max M2 (Molecular devices) spectrophotometer at 490 nm.

L. welshimeri = assay: in vitro cytotoxicity screen of drugs co-incubated with L. welshimeri (tumour cell survival, MTS); assay type: cell-based, Listeria welshimeri Serovar 6B SLCC5334; settings: drug co-incubated with L. welshimeri, bacteria removed, filtrate applied to tumour cells; change relative to reference cytotoxic effect (drug without bacteria)
Experimental: as §1
Bioluminescent E. coli was described by us previously and cultured in the presence of […] erythromycin. Listeria welshimeri Serovar 6B SLCC5334 was purchased from ECACC and cultivated at 37° C. in Brain Heart Infusion (BHI) medium. B. breve UCC2003 and Lactococcus lactis (UCC Culture Collection) was routinely grown at 37° C. in reinforced clostridial medium and M17 medium respectively (Oxoid, Basingstoke, UK). All lactobacilli strains were a kind gift of Dr. Cormac Gahan, UCC School of microbiology, and were grown in lactobacillus MRS broth (Beckton Dickinson). […]
Microtitre plates (96-well) were pre-seeded with 4000 cells/well in appropriate medium for each cell line and allowed to attach overnight. […] Cytotoxicity was quantified using an MTS staining with the Cell Titre 96 AQueous One solution Cell Proliferation Assay (Promega). The plates were measured and analysed in a Spectra max M2 (Molecular devices) spectrophotometer at 490 nm.

With Nc1ccn([C@@H]2O[C@H](CO)[C@@H](O)C2(F)F)c(=O)n1 [Gemcitabine] the “median survival post Day 0” value (CT26 tumours; gemcitabine alone group (PBS i.t.), 60 mg/kg i.p. five times at three day intervals) was 28 days, the “median survival post Day 0” value (CT26 tumours; gemcitabine+bacteria group, E. coli i.t., gemcitabine 60 mg/kg i.p. five times at three day intervals, P=0.008 vs gemcitabine alone) was 17 days and the “Cytotoxicity E. coli” value (E. coli) was “Down”.

With Nc1nc(=O)[nH]cc1F [5-fluorocytosine] the “Cytotoxicity E. coli” value (E. coli) was “Up”.

For CC1(C)CCC2=C(O1)c1ccccc1C(=O)C2=O [B-Lapachone], the “Cytotoxicity E. coli” value (E. coli) was “Down”.

With COc1cc([C@@H]2c3cc4c(cc3[C@@H](O[C@@H]3O[C@@H]5CO[C@@H](C)O[C@H]5[C@H](O)[C@H]3O)[C@H]3COC(=O)[C@H]23)OCO4)cc(OC)c1OP(=O)(O)O [Etoposide phosphate] the “Cytotoxicity E. coli” value (E. coli) was “Down”.

For Nc1ncnc2c1ncn2[C@@H]1O[C@H](CO)[C@@H](O)[C@@H]1O [Vidarabine], the “Cytotoxicity E. coli” value (E. coli) was “Down”.

Nc1nc(F)nc2c1ncn2[C@@H]1O[C@H](COP(=O)(O)O)[C@@H](O)[C@@H]1O [Fludarabine de phosphate] was tested, and the “Cytotoxicity L. welshimeri” value (L. welshimeri) was “Up” and the “Cytotoxicity E. coli” value (E. coli) was “Up”.

In the case of CC1=CC(=O)c2ccccc2C1=O [Menadione], the “Cytotoxicity E. coli” value (E. coli) was “Down”.

For COc1cccc2c1C(=O)c1c(O)c3c(c(O)c1C2=O)C[C@@](O)(C(C)=O)C[C@@H]3O[C@H]1C[C@H](N)[C@H](O)[C@H](C)O1 [Daunorubicin], the “Cytotoxicity E. coli” value (E. coli) was “Down”.

In the case of O=c1[nH]c(=O)n(C2CCCO2)cc1F (stereo not drawn) [Tegafur], the “Cytotoxicity E. coli” value (E. coli) was “Up”.

COc1cccc2c1C(=O)c1c(O)c3c(c(O)c1C2=O)C[C@@](O)(C(=O)CO)C[C@@H]3O[C@H]1C[C@H](N)[C@H](O)[C@H](C)O1 [Doxorubicin] was tested, and the “Cytotoxicity E. coli” value (E. coli) was “Down”.

Nc1nc(Cl)nc2c1ncn2[C@H]1C[C@H](O)[C@@H](CO)O1 [Cladribine] was tested, and the “Cytotoxicity E. coli” value (E. coli) was “reduced cytotoxic effect and Down”.

With OC[C@H]1O[C@@H](n2cnc3c(S)ncnc32)C[C@@H]1O [6-Mercaptopurine-2′-deoxyriboside] the “Cytotoxicity E. coli” value (E. coli) was “Up”.

In the case of CC(=O)[C@]1(O)Cc2c(O)c3c(c(O)c2[C@@H](O[C@H]2C[C@H](N)[C@H](O)[C@H](C)O2)C1)C(=O)c1ccccc1C3=O [Idarubicin], the “Cytotoxicity E. coli” value (E. coli) was “Down”.

With NC(=O)c1cc(N2CC2)c([N+](=O)[O-])cc1[N+](=O)[O-] [CB1954] the “median survival post Day 0” value (CT26 tumours; CB1954+bacteria group, E. coli i.t., CB1954 20 mg/kg i.p. at 3 day intervals, P=0.0374 vs CB1954 alone) was 26 days, the “median survival post Day 0” value (CT26 tumours; CB1954 alone group (PBS i.t.), 20 mg/kg i.p. at 3 day intervals) was 8 days and the “Cytotoxicity E. coli” value (E. coli) was “Up”.

With C[N+](C)([O-])CCNc1ccc(NCC[N+](C)(C)[O-])c2c1C(=O)c1c(O)ccc(O)c1C2=O [AQ4N] the “Cytotoxicity E. coli” value (E. coli) was “Up”.

In the case of O=C1c2c(O)ccc(O)c2C(=O)c2c(NCCNCCO)ccc(NCCNCCO)c21 [Mitoxantrone], the “Cytotoxicity E. coli” value (E. coli) was “Down”.

Reference: patent US20170246223A1 (priority 2016, published 2017)
